Laboratory results from ChEMBL document CHEMBL1201862, “PubChem BioAssay data set” (2004).
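Each compound was tested at five concentrations against cells in 96-well plates for 48 hours. GI50: concentration for 50% inhibition of growth.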 The source made the active and inactive calls. No stated cut-off is given here; in the data, active = GI50 up to about 1.1 µM and inactive = higher.

Columns and labels:
Assay in all cases: DTP human tumour cell line panel, 48 h
TK-10 = test system: TK-10
OVCAR-4 = test system: OVCAR-4
M14 = test system: M14
OVCAR-5 = test system: OVCAR-5
SN12C = test system: SN12C
UO-31 = test system: UO-31
NCI-H226 = test system: NCI-H226
OVCAR-3 = test system: OVCAR-3
SNB-75 = test system: SNB-75
CCRF-CEM = test system: CCRF-CEM
COLO 205 = test system: COLO 205
NCI-H522 = test system: NCI-H522
EKVX = test system: EKVX
DLD-1 = test system: DLD-1
A498 = test system: A498
SF-295 = test system: SF-295
SW-620 = test system: SW-620
DU-145 = test system: DU-145
MDA-MB-231 = test system: MDA-MB-231
PC-3 = test system: PC-3

Row | SMILES | GI50 (TK-10) | GI50 (OVCAR-4) | GI50 (M14) | GI50 (OVCAR-5) | GI50 (SN12C) | GI50 (UO-31) | GI50 (NCI-H226) | GI50 (OVCAR-3) | GI50 (SNB-75) | GI50 (CCRF-CEM) | GI50 (COLO 205) | GI50 (NCI-H522) | GI50 (EKVX) | GI50 (DLD-1) | GI50 (A498) | GI50 (SF-295) | GI50 (SW-620) | GI50 (DU-145) | GI50 (MDA-MB-231) | GI50 (PC-3)
1 | CC(=O)Oc1ccccc1C(=O)C1c2cccc(O)c2C(=O)c2c(O)cccc21 | 3.65 µM (inactive) | 0.995 µM (active) | 1.84 µM (inactive) | 2.58 µM (inactive) | 2.3 µM (inactive) | 0.741 µM (active) | 1.63 µM (inactive) | 0.593 µM (active) | 0.695 µM (active) | 0.306 µM (active) | 0.705 µM (active) | 0.479 µM (active) | 2.18 µM (inactive) | 1.23 µM (inactive) | 1.8 µM (inactive) | 0.682 µM (active) | 0.445 µM (active) |  |  | 
2 | O=C1CSC(/C(=C/c2ccccc2)c2nc3ccccc3[nH]2)=N1 | > 100 µM (inactive) | > 100 µM (inactive) | 57 µM (inactive) | > 100 µM (inactive) | 75.3 µM (inactive) | > 100 µM (inactive) | 7.55 µM (inactive) | > 10 µM (inactive) | 14.2 µM (inactive) | 34 µM (inactive) | > 100 µM (inactive) | 41.9 µM (inactive) | > 100 µM (inactive) | > 100 µM (inactive) | > 100 µM (inactive) | 63.8 µM (inactive) | > 100 µM (inactive) |  |  | 
3 | CCCC(O)c1cn(-c2cccc(S(=O)(=O)O)c2)nn1 (centres undefined) | > 100 µM (inactive) | > 100 µM (inactive) | > 100 µM (inactive) | > 100 µM (inactive) | > 100 µM (inactive) | > 100 µM (inactive) | > 100 µM (inactive) | > 100 µM (inactive) | > 100 µM (inactive) | > 100 µM (inactive) | > 100 µM (inactive) | > 100 µM (inactive) | > 100 µM (inactive) | > 100 µM (inactive) | > 100 µM (inactive) | > 100 µM (inactive) | > 100 µM (inactive) |  |  | 
4 | NC(=O)C(=O)n1ncc(Cl)c(Cl)c1=O | 31.8 µM (inactive) | 29.4 µM (inactive) | 28.8 µM (inactive) | 37.5 µM (inactive) | 18.6 µM (inactive) | 32.7 µM (inactive) | > 69.5 µM (inactive) | 32.2 µM (inactive) | > 42.8 µM (inactive) | 6.03 µM (inactive) | > 32.9 µM (inactive) | 7.73 µM (inactive) | 39.2 µM (inactive) | 15.3 µM (inactive) | > 72.9 µM (inactive) | 13.6 µM (inactive) | 13.3 µM (inactive) | > 100 µM (inactive) | > 10 µM (inactive) | 
5 | C/C(=N/Nc1ccc([N+](=O)[O-])cc1[N+](=O)[O-])C(CC(C(=O)Nc1ccccc1C)/C(C)=N\Nc1ccc([N+](=O)[O-])cc1[N+](=O)[O-])C(=O)Nc1ccccc1C (centres undefined) | 17.9 µM (inactive) | 5.74 µM (inactive) | 18 µM (inactive) | 16.9 µM (inactive) | 6 µM (inactive) | 11.5 µM (inactive) | 6.65 µM (inactive) | 7.06 µM (inactive) | 10.1 µM (inactive) | > 100 µM (inactive) | 12.8 µM (inactive) | 0.424 µM (active) | 18.2 µM (inactive) | 28.4 µM (inactive) | 14.9 µM (inactive) | 16.1 µM (inactive) | 18.8 µM (inactive) |  |  | 
6 | CC1(C)OCC(CO)(Nc2nc(N3CC3)nc(N3CC3)n2)CO1 | 24.6 µM (inactive) | 18.8 µM (inactive) | 9.2 µM (inactive) | 20 µM (inactive) | 7.71 µM (inactive) | 8.95 µM (inactive) | 8.13 µM (inactive) | 20.4 µM (inactive) | 6.58 µM (inactive) | 1.16 µM (inactive) | 20.3 µM (inactive) | 13.2 µM (inactive) | 32 µM (inactive) | 31.3 µM (inactive) | 10.2 µM (inactive) | 2.96 µM (inactive) | 14.5 µM (inactive) | 1.3 µM (inactive) | > 10 µM (inactive) | 17.9 µM (inactive)
7 | COC1(C)C(=O)N2C1N(C(=O)OC(C)(C)C)CC2(C)C (centres undefined) | > 100 µM (inactive) | > 100 µM (inactive) | > 100 µM (inactive) | > 100 µM (inactive) | > 100 µM (inactive) | > 100 µM (inactive) | > 100 µM (inactive) | > 100 µM (inactive) | > 100 µM (inactive) | > 100 µM (inactive) | 36.5 µM (inactive) | > 100 µM (inactive) | > 100 µM (inactive) | > 100 µM (inactive) | > 100 µM (inactive) | > 100 µM (inactive) | 17.5 µM (inactive) |  |  | 
